Measured values from PubChem BioAssay (NCI).
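Values below derive from 48-hour exposures of cells grown in 96-well plates, with endpoints linearly interpolated between the two concentrations bracketing the appropriate inhibition level. At the GI50, growth is halved. TGI marks complete inhibition of growth.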

Legend:
Test in all cases: NCI-60 cell line screen, 48 h
786-0 renal = system: 786-0 renal
A549 NSCLC = system: A549 NSCLC
DU-145 prostate = system: DU-145 prostate
IGROV1 ovarian = system: IGROV1 ovarian
SF-539 CNS = system: SF-539 CNS
CAKI-1 renal = system: CAKI-1 renal

## CSC(=O)c1sc(SC)[n+](-c2ccccc2)c1O
786-0 renal
  TGI: 32.7 µM
A549 NSCLC
  TGI: > 100 µM
DU-145 prostate
  TGI: 29.5 µM
IGROV1 ovarian
  TGI: 37.2 µM
SF-539 CNS
  TGI: 29.5 µM

## COc1ccc(NC(=S)c2ccc(CN3CCCCC3)s2)cc1
786-0 renal
  TGI: 36.7 µM
A549 NSCLC
  TGI: 47.4 µM
CAKI-1 renal
  TGI: 77.3 µM
DU-145 prostate
  TGI: > 100 µM
IGROV1 ovarian
  TGI: 49.2 µM
SF-539 CNS
  TGI: > 100 µM

## Cc1ccc(S(=O)(=O)N2C3C=CC(C3)[C@@H]2C(Cl)(Cl)Cl)cc1 (stereo partly specified)
786-0 renal
  TGI: 49.5 µM
A549 NSCLC
  TGI: > 100 µM
CAKI-1 renal
  TGI: > 68.5 µM
DU-145 prostate
  TGI: > 81.2 µM
IGROV1 ovarian
  TGI: > 71 µM
SF-539 CNS
  TGI: 30 µM

## COC(=O)[C@]1(C)CCC[C@@]2(C)C1CC[C@@]13C=C(C(C)C)[C@@H](CC1=O)CC23 (stereo partly specified)
786-0 renal
  TGI: 60.7 µM
A549 NSCLC
  TGI: > 100 µM
CAKI-1 renal
  TGI: 85.2 µM
DU-145 prostate
  TGI: > 100 µM
IGROV1 ovarian
  TGI: > 100 µM
SF-539 CNS
  TGI: 37.5 µM

## Cc1ccc2nc(-c3ccccc3)cc(=O)n2c1
786-0 renal
  TGI: > 100 µM
A549 NSCLC
  TGI: > 100 µM
DU-145 prostate
  TGI: > 100 µM
IGROV1 ovarian
  TGI: > 100 µM
SF-539 CNS
  TGI: > 100 µM

## C[C@]12[C@@H]3CC[C@H]1[C@@H](O)C(=O)N2CC3
786-0 renal
  TGI: > 100 µM
A549 NSCLC
  TGI: > 100 µM
CAKI-1 renal
  TGI: > 100 µM
DU-145 prostate
  TGI: > 100 µM
IGROV1 ovarian
  TGI: > 100 µM

## COc1ccccc1CC(=O)C(O)(C(F)(F)F)C(F)(F)F
786-0 renal
  TGI: > 100 µM
A549 NSCLC
  TGI: > 100 µM
CAKI-1 renal
  TGI: > 100 µM
DU-145 prostate
  TGI: > 100 µM
IGROV1 ovarian
  TGI: > 100 µM
SF-539 CNS
  TGI: > 100 µM

## O=C1OC(c2ccccc2)=N/C1=C\c1ccc([N+](=O)[O-])cc1
786-0 renal
  TGI: > 100 µM
A549 NSCLC
  TGI: > 100 µM
CAKI-1 renal
  TGI: > 100 µM
DU-145 prostate
  TGI: > 100 µM
IGROV1 ovarian
  TGI: > 100 µM
SF-539 CNS
  TGI: > 100 µM

## CC1(C)[C@@H](Cn2cc(I)c(=O)[nH]c2=O)CC[C@@]1(C)CO
786-0 renal
  TGI: > 100 µM
A549 NSCLC
  TGI: > 100 µM
CAKI-1 renal
  TGI: > 100 µM
DU-145 prostate
  TGI: > 100 µM

## C[N+]12C=CC=C1C(N1CCCC1)c1scc(-c3ccc(Br)cc3)c12 (stereo unspecified)
786-0 renal
  TGI: > 100 µM
A549 NSCLC
  TGI: > 100 µM
CAKI-1 renal
  TGI: > 100 µM
DU-145 prostate
  TGI: > 100 µM
IGROV1 ovarian
  TGI: 20.8 µM
SF-539 CNS
  TGI: 21.9 µM

## Nc1nc(Cl)cc(OCC2(CO)CC=CC2)n1
786-0 renal
  TGI: > 100 µM
A549 NSCLC
  TGI: > 100 µM
DU-145 prostate
  TGI: > 100 µM
IGROV1 ovarian
  TGI: > 100 µM
SF-539 CNS
  TGI: > 100 µM

## Nc1ncc2c(n1)-c1ccccc1OC2N1CCCCC1 (stereo unspecified)
786-0 renal
  TGI: > 100 µM
A549 NSCLC
  TGI: > 100 µM
CAKI-1 renal
  TGI: > 100 µM
DU-145 prostate
  TGI: > 100 µM
IGROV1 ovarian
  TGI: > 100 µM
SF-539 CNS
  TGI: > 100 µM

## N=c1oc2ccccc2cc1C(=O)NC12CC3CC(CC(C3)C1)C2
786-0 renal
  TGI: 9.92 µM
A549 NSCLC
  TGI: 73.1 µM
DU-145 prostate
  TGI: > 84.3 µM
IGROV1 ovarian
  TGI: > 65.6 µM
SF-539 CNS
  TGI: 42 µM

## Cc1ccc(Nc2nc(NNC(=O)Cc3ccccc3)nc(NNC(=O)c3ccncc3)n2)cc1
786-0 renal
  TGI: > 10 µM
A549 NSCLC
  TGI: > 10 µM
CAKI-1 renal
  TGI: > 10 µM
DU-145 prostate
  TGI: > 10 µM
IGROV1 ovarian
  TGI: > 10 µM
SF-539 CNS
  TGI: > 10 µM

## O=C1NC2(CCN(CCc3ccccc3)CC2)Oc2ccccc21
786-0 renal
  TGI: > 100 µM
A549 NSCLC
  TGI: > 100 µM
CAKI-1 renal
  TGI: > 100 µM
DU-145 prostate
  TGI: > 100 µM
IGROV1 ovarian
  TGI: > 100 µM
SF-539 CNS
  TGI: > 100 µM

## COc1cc(S(=O)(=O)Nc2ccc(-c3csc(N4C(=O)CSC4c4cccc(Oc5ccccc5)c4)n3)cc2)ccc1Cl (stereo unspecified)
786-0 renal
  TGI: > 100 µM
CAKI-1 renal
  TGI: > 100 µM
DU-145 prostate
  TGI: > 100 µM
IGROV1 ovarian
  TGI: > 100 µM
SF-539 CNS
  TGI: > 100 µM

## O=C1c2ccccc2-n2nnnc2C2CSCN12 (stereo unspecified)
786-0 renal
  TGI: > 100 µM
A549 NSCLC
  TGI: > 100 µM
CAKI-1 renal
  TGI: > 100 µM
DU-145 prostate
  TGI: > 100 µM
IGROV1 ovarian
  TGI: > 100 µM

## Cc1ccc(S(=O)(=O)N2CC2CCCCC=O)cc1 (stereo unspecified)
786-0 renal
  TGI: > 100 µM
A549 NSCLC
  TGI: > 100 µM
CAKI-1 renal
  TGI: > 100 µM
DU-145 prostate
  TGI: > 100 µM
IGROV1 ovarian
  TGI: > 100 µM

## COC(=O)c1ccc(Cc2cc(Cc3ccc(C(=O)OC)cc3)cc(Cc3ccc(C(=O)OC)cc3)c2)cc1
786-0 renal
  TGI: > 25 µM
A549 NSCLC
  TGI: > 25 µM
DU-145 prostate
  TGI: > 25 µM
IGROV1 ovarian
  TGI: > 25 µM
SF-539 CNS
  TGI: > 25 µM

## Cc1cn(C2OC(CO[Si](C)(C)C(C)(C)C)C(N(C)O[Si](C)(C)C(C)(C)C)C2[Se]c2ccccc2)c(=O)[nH]c1=O (stereo unspecified)
786-0 renal
  TGI: 9.29 µM
A549 NSCLC
  TGI: 49.5 µM
DU-145 prostate
  TGI: 79 µM
IGROV1 ovarian
  TGI: 28.2 µM

## CCCCCCOc1ccc(/C=N/Nc2cc(C)nc3ccc(Cl)cc23)cc1
A549 NSCLC
  GI50: 1.93 µM
  TGI: 3.73 µM
CAKI-1 renal
  GI50: 1.65 µM
  TGI: 3.06 µM
DU-145 prostate
  GI50: 1.86 µM
  TGI: 3.57 µM
IGROV1 ovarian
  GI50: 1.79 µM
  TGI: 3.53 µM
SF-539 CNS
  GI50: 1.84 µM
  TGI: 3.26 µM

## CC1=NN(c2nc(N)nc(COc3ccc(N)cc3)n2)C(C)(C)C1
786-0 renal
  TGI: > 100 µM
CAKI-1 renal
  TGI: > 100 µM
DU-145 prostate
  TGI: > 100 µM
IGROV1 ovarian
  TGI: > 100 µM
SF-539 CNS
  TGI: > 100 µM

## O=C1/C(=C/c2ccco2)NC(=S)N1CN1CCCCC1
786-0 renal
  TGI: > 100 µM
A549 NSCLC
  TGI: > 100 µM
DU-145 prostate
  TGI: > 100 µM
IGROV1 ovarian
  TGI: > 100 µM

## O=S(=O)(O)c1cc(N=Nc2c(O)ccc3ccccc23)cc2c(S(=O)(=O)O)cccc12
786-0 renal
  TGI: > 100 µM
A549 NSCLC
  TGI: > 100 µM
CAKI-1 renal
  TGI: > 100 µM
IGROV1 ovarian
  TGI: > 100 µM
SF-539 CNS
  TGI: > 100 µM
